Like-named read-outs stand apart in the source and are kept apart here.
Legend:
MCF7 cells [1] = assay: Proliferation assay (Cell Titer-Glo), MCF7; format: cell-based, human; settings: for proliferation: MCF7, single agent CDK4/6 inhibitor over a dose range
Procedure: (§1) Cells were seeded in duplicate or triplicate at 1500 to 5000 cells per well in 96 well plates, Opaque-walled 96-well plates with clear bottom: 96-well, Black/Clear, Flat bottom with lid, FALCON, 353219 in reduced serum conditions at either 3% v/v FBS or 1% v/v FBS. The day after plating recombinant HRGβ1 was added to yield a final concentration of 10 nM. Control wells received media without HRGβ1. Plates were then incubated for the indicated time period of 4 to 6 days at 37° C. in a humid atmosphere with 95% air, 5% CO2.
(§2) The day after plating recombinant HRGβ1 was added to yield a final concentration of 10 nM. Control wells received media without HRGβ1. […] Where indicated CDK inhibitors were added at 10 μM and dilutions were performed to generate a dose-response curve with 2 controls wells per row. Plates were then incubated for the indicated time period of 4 to 6 days at 37° C. in a humid atmosphere with 95% air, 5% CO2. Growth inhibition was calculated as a function of the relative inhibition or proliferation of cells treated with either growth factor or antagonists to cells treated with diluent only, over the same time period.
(§3) The day after plating recombinant HRGβ1 was added to yield a final concentration of 10 nM. Control wells received media without HRGβ1. […] Where indicated CDK inhibitors were added at 10 μM and dilutions were performed to generate a dose-response curve with 2 controls wells per row. Plates were then incubated for the indicated time period of 4 to 6 days at 37° C. in a humid atmosphere with 95% air, 5% CO2.
(§4) To measure proliferation, Cell Titer-Glo (CTG) assays were performed as per manufacturer's instructions. Specifically, reagent-1 and reagent-2 were equilibrated to room temperature at which point reagent-1 was added to reagent-2 and mixed by vortex. Test plates containing cells were equilibrated to room temperature for 30 minutes at which point an equal volume of CTG reagent was added to each well of the test plate, typically 100 μl to give a final volume of 200 μl per well. Each plate was then sealed with a foil plate sealer and mixed on an orbital shaker for 10 minutes to lyse cells and release cellular ATP. Following mixing plates were incubated at room temperature for 15 minutes to stabilize the luminescent signal. Data was collected by measuring relative luminescence on a Synergy H1 plate reader using the luminescence program. Growth was calculated and expressed as a relative value to the unstimulated control wells on each individual plate. Growth inhibition was calculated as a function of the relative inhibition of cells treated with antagonists to the growth of cells treated with diluent only, over the same time period. Data was then plotted using GraphPad Prism software.

RB = RB phosphorylation (S807/811, S780) by Western blotting in MCF7 cells; format: cell-based, human; settings: for RB phosphorylation / activation: MCF7, 20-24 hours, HRG 10 nM, fulvestrant 50 nM, palbociclib, abemaciclib 40 nM
Procedure: MCF7 cells were cultured as described above. […] Cellular lysates were prepared by lysis in MPER lysis buffer with the addition of protease and phosphatase inhibitors for 30 mins on ice. Cellular debris were removed by centrifugation at 10,000 rpm. Proteins were analyzed by Western blotting according to standard protocols. Protein loading was estimated by blotting with a β-actin antibody (β-Actin (13E5) Rabbit mAb #4970 Cell Signal) and RB activation was measured by detection of phosphorylation of RB (pRB) at pRb (S807/811): Cat #8516 pRb (S780): Cat #8180. Control antibodies as follows total AKT: Cat #9272 pAKT: Cat #4060.

[2] = cited from earlier work
CDK2 = CDK2 activation (phospho-Thr160) by Western blotting in MCF7 cells; format: cell-based, human
Procedure: Cellular lysates were prepared by lysis in MPER lysis buffer with the addition of protease and phosphatase inhibitors for 30 minutes on ice. Cellular debris was removed by centrifugation at 10,000 rpm. Proteins were analyzed by Western blotting according to standard protocols.

T47D cells = assay: Proliferation assay (Cell Titer-Glo), T47D; format: cell-based, human
Procedure: as §1, §2, §3, §4

MCF7 cells [3] = assay: Cell cycle / S-phase by EdU incorporation and flow cytometry in MCF7 cells; format: cell-based, human
Procedure: FIG. 13 is a representative FACS plot of the cell cycle distribution. The gate settings and percentage for cells in G0/G1, S and G2/M phases are indicated. DNA synthesis (S-phase) was determined by quantifying cells positive for both EdU incorporation and DNA content.

MCF-7Ca xenograft tumors = assay: MCF-7Ca xenograft model of post-menopausal ER+ breast cancer; format: in vivo, mice
Procedure: A model of post-menopausal ER+ breast cancer was used to determine the effect of blocking HRG-mediated ERB3 signaling and/or estrogen-mediated ER activation on tumor growth (FIG. 16). […] Changes in mean tumor volume (±SEM) were determined weekly by caliper measurement.

ZR75-1 cells = assay: Proliferation assay (Cell Titer-Glo), ZR75-1; format: cell-based, human; settings: ZR75-1, CDK4/6 inhibitor plus HRG
Procedure: as §2
The day after plating recombinant HRGβ1 was added to yield a final concentration of 10 nM. Control wells received media without HRGβ1. […]
To measure proliferation, Cell Titer-Glo (CTG) assays were performed as per manufacturer's instructions. […] Data was collected by measuring relative luminescence on a Synergy H1 plate reader using the luminescence program. Growth was calculated and expressed as a relative value to the unstimulated control wells on each individual plate. Growth inhibition was calculated as a function of the relative inhibition of cells treated with antagonists to the growth of cells treated with diluent only, over the same time period. […]

MCF7 cells [4] = assay: MCF7 orthotopic xenograft model of ER+ HER2- breast cancer; format: in vivo; settings: SHO mice
Procedure: Female SHO mice (Charles River Laboratories) aged 8-10 weeks were implanted with 17-beta-estradiol pellets (0.72 mg/pellet) and 2 days later, injected with 100 μl of 5×10^6 MCF7 cells suspended in 50% DPBS/50% matrigel into the abdominal mammary fat pad. Tumor growth was monitored twice a week and tumor volumes were calculated following external caliper measurement according to the formula (tumor size=π/6×[length×width^2]). Once the average measured tumor volume had reached approximately 200 mm^3, mice were randomized into groups and treatment was administered. Overall, the average starting tumor volume per group was equivalent across all groups. Fulvestrant was dosed at 500 μg per mouse once per week via subcutaneous delivery. Palbociclib was dosed at 25 mg/kg, orally every day for 5 days, Monday through Friday.

For `CCN1CCN(Cc2ccc(Nc3ncc(F)c(-c4cc(F)c5nc(C)n(C(C)C)c5c4)n3)nc2)CC1` [abemaciclib, 2-pyrimidinamine, N-(5-((4-ethyl-1-piperazinyl)methyl)-2-pyridinyl)-5-fluoro-4-(4-fluoro-2-methyl-1-(1-methylethyl)-1H-benzimidazol-6-yl), reference compound], the proliferation (MCF7 cells [1]; 6 days) was “inhibited proliferation in a dose dependent manner” and the “RB phosphorylation / activation” value (RB) was “decrease RB activation”.

For `CC(C)(C#N)c1cc(Cn2cncn2)cc(C(C)(C)C#N)c1` [anastrozole, a,a,a′,a′-Tetramethyl-5-(1H-1,2,4-triazol-1-ylmethyl)-1,3-benzenediacetonitrile], the solubility ([2]; in acetone) is given as “freely soluble”, the solubility ([2]; in acetonitrile) is given as “very soluble” and the solubility ([2]; in ethanol) is given as “freely soluble”. For the same molecule, the solubility ([2]; in methanol) was “freely soluble” and the solubility ([2]; in tetrahydrofuran) was “freely soluble”.

In the case of `C[C@]12CC[C@@H]3c4ccc(O)cc4C[C@@H](CCCCCCCCC[S+]([O-])CCCC(F)(F)C(F)(F)F)[C@H]3[C@@H]1CC[C@@H]2O` (stereo partly drawn) [fulvestrant, 7-alpha-[9-(4,4,5,5,5-pentafluoropentylsulphinyl)nonyl]estra-1,3,5-(10)-triene-3,17beta-diol, reference compound], the CDK2 activation (CDK2; MCF7, agent alone, 20-24 hours, HRG 10 nM, fulvestrant, palbociclib, abemaciclib 100 nM) is reported as “inhibited CDK2 activation”, the “fulvestrant activity on proliferation” value (T47D cells; HRG present in addition to estradiol) is reported as “significantly decreased” and the “inhibition of estradiol induced proliferation” value (T47D cells; fulvestrant 100 nM, 6 days) is reported as “effective at inhibiting estradiol induced proliferation”. For the same molecule, the “S-phase cell cycle progression” value (MCF7 cells [3]; MCF7, single agents in the absence of HRG) was “efficacious at inhibiting S-phase cell cycle progression”, the “degree of inhibition of proliferation” value (MCF7 cells [1]; MCF7, CDK4/6 inhibitor plus fulvestrant (50 nM)) was “greater than the activity of the CDK4/6 inhibitor alone” and the “fulvestrant activity on proliferation” value (MCF7 cells [1]; MCF7, HRG present in addition to estradiol) was “significantly decreased”. The “inhibition of estradiol induced proliferation” value (MCF7 cells [1]; MCF7, fulvestrant 100 nM, 6 days) was “effective at inhibiting estradiol induced proliferation” and the “RB phosphorylation / activation” value (RB) was “inhibits RB activation”.

In the case of `N#Cc1ccc(C(c2ccc(C#N)cc2)n2cncn2)cc1` [letrozole, 4,4′-(1H-1,2,4-Triazol-1-ylmethylene)dibenzonitrile], the solubility ([2]; in dichloromethane) is listed as “freely soluble”, the solubility ([2]; in ethanol) is listed as “slightly soluble” and the solubility ([2]; in water) is listed as “practically insoluble”. For the same molecule, the tumor response (MCF-7Ca xenograft tumors; letrozole 10 μg/mouse/day x 5 days/week SQ) was “initially responded” and the “start of development of resistance” value (MCF-7Ca xenograft tumors; letrozole monotherapy, time of treatment) was 7-8 weeks.

For `CN(C)C(=O)c1cc2cnc(Nc3ccc(N4CCNCC4)cn3)nc2n1C1CCCC1` [ribociclib, 7-cyclopentyl-N,N-dimethyl-2-((5-(piperazin-1-yl)pyridin-2-yl)amino)-7H-pyrrolo[2,3-d]pyrimidine-6-carboxamide, reference compound], the proliferation (MCF7 cells [1]; 6 days) was “inhibited proliferation in a dose dependent manner”.

B1: seribantumab: human monoclonal anti-ErbB3 IgG2; heavy and light chains SEQ ID NO: 7 and 8 (antibody)
heavy: EVQLLESGGGLVQPGGSLRLSCAASGFTFSHYVMAWVRQAPGKGLEWVSSISSSGGWTLYADSVKGRFTISRDNSKNTLYLQMNSLRAEDTAVYYCTRGLKMATIFDYWGQGTLVTVSSASTKGPSVFPLAPCSRSTSESTAALGCLVKDYFPEPVTVSWNSGALTSGVHTFPAVLQSSGLYSLSSVVTVPSSNFGTQTYTCNVDHKPSNTKVDKTVERKCCVECPPCPAPPVAGPSVFLFPPKPKDTLMISRTPEVTCVVVDVSHEDPEVQFNWYVDGVEVHNAKTKPREEQFNSTFRVVSVLTVVHQDWLNGKEYKCKVSNKGLPAPIEKTISKTKGQPREPQVYTLPPSREEMTKNQVSLTCLVKGFYPSDIAVEWESNGQPENNYKTTPPMLDSDGSFFLYSKLTVDKSRWQQGNVFSCSVMHEALHNHYTQKSLSLSPGK
light: QSALTQPASVSGSPGQSITISCTGTSSDVGSYNVVSWYQQHPGKAPKLIIYEVSQRPSGVSNRFSGSKSGNTASLTISGLQTEDEADYYCCSYAGSSIFVIFGGGTKVTVLGQPKAAPSVTLFPPSSEELQANKATLVCLVSDFYPGAVTVAWKADGSPVKVGVETTKPSKQSNNKYAASSYLSLTPEQWKSHRSYSCRVTHEGSTVEKTVAPAECS
For B1, the “effect of adding seribantumab on CDK4/6 inhibitor activity” value (ZR75-1 cells) was “restored sensitivity”, the “effect on HRG-induced CDK2 activation” value (CDK2; MCF7, in the presence of fulvestrant or CDK4/6 inhibitors palbociclib and abemaciclib) was “blocked HRG mediated activation of CDK2” and the “effect on HRG-induced CDK2 activation” value (CDK2; MCF7, seribantumab 1 uM, HRG 10 nM) was “can block the activating effect of HRG on CDK2 activation”. The “growth inhibition, addition of seribantumab to the combination of palbociclib and fulvestrant” value (MCF7 cells [4]) was “increases the growth inhibition”, the “antitumor efficacy, addition of seribantumab to fulvestrant” value (MCF7 cells [4]; seribantumab 600 μg twice per week IP, fulvestrant 500 μg once per week SC) was “increased the antitumor efficacy” and the “antitumor efficacy, addition of seribantumab to palbociclib” value (MCF7 cells [4]; seribantumab 600 μg twice per week IP, palbociclib 25 mg/kg orally) was “increased the antitumor efficacy”. For the same molecule, the resistance to letrozole (MCF-7Ca xenograft tumors; co-treated with letrozole and seribantumab) was “substantially delayed”, the tumor growth (MCF-7Ca xenograft tumors; co-treated with letrozole and seribantumab (750 μg/mouse IP)) was “tumor growth was inhibited” and the “tumor growth of letrozole-resistant tumors” value (MCF-7Ca xenograft tumors; re-randomized at week 14, letrozole and seribantumab compared to letrozole alone) was “significantly decreased tumor growth”. The “effect of seribantumab on cell cycle inhibitory activity of fulvestrant or palbociclib” value (MCF7 cells [3]; MCF7, in the presence of HRG) was “restores this activity”, the “effect of seribantumab on cell cycle inhibitory activity of the palbociclib-fulvestrant combination” value (MCF7 cells [3]; MCF7, in the presence of HRG) was “restored this activity” and the “effect of adding seribantumab on CDK4/6 inhibitor activity” value (MCF7 cells [1]; MCF7, CDK4/6 inhibitor plus HRG 10 nM) was “restored CDK inhibitory activity”. The “effect of adding seribantumab on the CDK4/6 inhibitor-fulvestrant combination” value (MCF7 cells [1]; MCF7, with HRG) was “restored sensitivity”, the “effect of adding seribantumab on proliferation” value (MCF7 cells [1]; MCF7 treated with fulvestrant, estradiol and HRG) was “restoration of the activity of fulvestrant” and the “effect of seribantumab on activity of fulvestrant, palbociclib and abemaciclib on RB” value (RB; MCF7, seribantumab 1 uM, with HRG, alone or in combination) was “restored the activity”.

Reference: patent publication US20190091227A1, “METHODS FOR TREATING ER+, HER2-, HRG+ BREAST CANCER USING COMBINATION THERAPIES COMPRISING AN ANTI-ERBB3 ANTIBODY” (Merrimack Pharmaceuticals, Inc., priority 2016, published 2019)
